Data reported in patent US12465614B2, “Budesonide 21-phosphate salts and pharmaceutical compositions containing the same” (GENETIC S.P.A., priority 2020, dated 2025).

Columns and labels:
[1] = system: OVA-sensitized mice; format: in vivo; conditions: 1 mg/Kg i.p. before each OVA exposure; female Balb/c; vs OVA group; FIG. 10A
[2] = system: OVA-sensitized mice; test: Bronchial relaxation to salbutamol, isolated bronchi of OVA-sensitized mice (Experimental Groups I); format: in vivo; conditions: 1 mg/Kg i.p.; rings precontracted with carbachol; vs OVA group; FIG. 10B

SMILES: CCCC1OC2CC3C4CCC5=CC(=O)C=CC5(C)C4C(O)CC3(C)C2(C(=O)COP(=O)(O)O)O1 (centres unmarked) [B, Budesonide 21-phosphate]
- bronchial hyperreactivity (increased response of isolated bronchi to carbachol) [1]: did not significantly affect the increased response of carbachol
- bronchial relaxation to salbutamol [2]: did not ameliorate the lack of bronchial response to salbutamol
